Reference: PubChem BioAssay AID2060623 (Molecular Pharmacology Branch, DTP, NCI, 2025)

Test system: 227483-062-R1-J1-PDC complex spheroids with HUVEC/MSC, viability
Experiment: Anticancer human tumor 227483-062-R1-J1-PDC patient-derived pancreatic carcinoma cell line growth inhibition [CLK]
Conditions: for IC50: curve of first compound; for viability, T/C: stronger effect = lower value
How it was run: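 Multi-cell-type spheroids combined patient-derived tumor cells with HUVEC endothelial cells and human mesenchymal stem cells. Paired agents were dosed in half-log steps down from about clinical Cmax, or from 10 microM where Cmax was unknown.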

[1] = second compound 0.0316 µM, first compound 0.0316 µM
[2] = second compound 0.0316 µM, first compound 0.1 µM
[3] = second compound 0.0316 µM, first compound 0.316 µM
[4] = second compound 0.0316 µM, first compound 1 µM
[5] = second compound 0.0316 µM, first compound 3.16 µM
[6] = second compound 0.0316 µM, first compound 10 µM
[7] = second compound 0.1 µM, first compound 0.0316 µM
[8] = second compound 0.1 µM, first compound 0.1 µM
[9] = second compound 0.1 µM, first compound 0.316 µM
[10] = second compound 0.1 µM, first compound 1 µM
[11] = second compound 0.1 µM, first compound 3.16 µM
[12] = second compound 0.1 µM, first compound 10 µM
[13] = second compound 0.316 µM, first compound 0.0316 µM
[14] = second compound 0.316 µM, first compound 0.1 µM
[15] = second compound 0.316 µM, first compound 0.316 µM
[16] = second compound 0.316 µM, first compound 1 µM
[17] = second compound 0.316 µM, first compound 3.16 µM
[18] = second compound 0.316 µM, first compound 10 µM
[19] = second compound 1 µM, first compound 0.0316 µM
[20] = second compound 1 µM, first compound 0.1 µM
[21] = second compound 1 µM, first compound 0.316 µM
[22] = second compound 1 µM, first compound 1 µM
[23] = second compound 1 µM, first compound 3.16 µM
[24] = second compound 1 µM, first compound 10 µM
[25] = second compound 3.16 µM, first compound 0.0316 µM
[26] = second compound 3.16 µM, first compound 0.1 µM
[27] = second compound 3.16 µM, first compound 0.316 µM
[28] = second compound 3.16 µM, first compound 1 µM
[29] = second compound 3.16 µM, first compound 3.16 µM
[30] = second compound 3.16 µM, first compound 10 µM
[31] = second compound 10 µM, first compound 0.0316 µM
[32] = second compound 10 µM, first compound 0.1 µM
[33] = second compound 10 µM, first compound 0.316 µM
[34] = second compound 10 µM, first compound 1 µM
[35] = second compound 10 µM, first compound 3.16 µM
[36] = second compound 10 µM, first compound 10 µM
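Note: spheroids exposed to compounds for seven days before readout.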
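Throughout, for viability, T/C: percent of DMSO vehicle control luminescence as 100% viability.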

CC1(C)CCC(CN2CCN(c3ccc(C(=O)NS(=O)(=O)c4ccc(NCC5CCOCC5)c([N+](=O)[O-])c4)c(Oc4cnc5[nH]ccc5c4)c3)CC2)=C(c2ccc(Cl)cc2)C1 + CNC(=O)c1ccc(Nc2nc(OC3CCCC3)c3c(-c4ccc5nc(C)oc5c4)c[nH]c3n2)c(OC)c1
IC50 (second compound 0.0316 µM): 5960 nM
IC50 (second compound 0.1 µM): 5530 nM
IC50 (second compound 0.316 µM): 5270 nM
IC50 (second compound 1 µM): 4510 nM
IC50 (second compound 3.16 µM): 3450 nM
IC50 (second compound 10 µM): < 31.6 nM
viability, T/C [1]: 96.7%
viability, T/C [2]: 101%
viability, T/C [3]: 100%
viability, T/C [4]: 121%
viability, T/C [5]: 101%
viability, T/C [6]: 8.36%
viability, T/C [7]: 90.2%
viability, T/C [8]: 93.6%
viability, T/C [9]: 87.7%
viability, T/C [10]: 85.9%
viability, T/C [11]: 87.8%
viability, T/C [12]: 9.86%
viability, T/C [13]: 100%
viability, T/C [14]: 91.2%
viability, T/C [15]: 78.7%
viability, T/C [16]: 88.5%
viability, T/C [17]: 84.6%
viability, T/C [18]: 6.46%
viability, T/C [19]: 70.6%
viability, T/C [20]: 67.2%
viability, T/C [21]: 73.1%
viability, T/C [22]: 85.3%
viability, T/C [23]: 67.2%
viability, T/C [24]: 9.18%
viability, T/C [25]: 50.3%
viability, T/C [26]: 63.3%
viability, T/C [27]: 55.3%
viability, T/C [28]: 57.6%
viability, T/C [29]: 53.3%
viability, T/C [30]: 7.8%
viability, T/C [31]: 48%
viability, T/C [32]: 45%
viability, T/C [33]: 51.7%
viability, T/C [34]: 46.3%
viability, T/C [35]: 44.1%
viability, T/C [36]: 9.45%

CC1COCCN1c1cc(C2(S(C)(=N)=O)CC2)nc(-c2ccnc3[nH]ccc23)n1 (stereo not drawn) + CNC(=O)c1ccc(Nc2nc(OC3CCCC3)c3c(-c4ccc5nc(C)oc5c4)c[nH]c3n2)c(OC)c1
IC50 (second compound 0.0316 µM): > 10000 nM
IC50 (second compound 0.1 µM): > 10000 nM
IC50 (second compound 0.316 µM): 7130 nM
IC50 (second compound 1 µM): 1380 nM
IC50 (second compound 3.16 µM): 237 nM
IC50 (second compound 10 µM): < 31.6 nM
viability, T/C [1]: 110%
viability, T/C [2]: 105%
viability, T/C [3]: 110%
viability, T/C [4]: 102%
viability, T/C [5]: 85.3%
viability, T/C [6]: 63.3%
viability, T/C [7]: 125%
viability, T/C [8]: 108%
viability, T/C [9]: 103%
viability, T/C [10]: 108%
viability, T/C [11]: 65%
viability, T/C [12]: 62.3%
viability, T/C [13]: 96.4%
viability, T/C [14]: 107%
viability, T/C [15]: 92.9%
viability, T/C [16]: 79.7%
viability, T/C [17]: 64.1%
viability, T/C [18]: 44.3%
viability, T/C [19]: 76.8%
viability, T/C [20]: 68.9%
viability, T/C [21]: 73.4%
viability, T/C [22]: 53%
viability, T/C [23]: 39.1%
viability, T/C [24]: 30.6%
viability, T/C [25]: 59.7%
viability, T/C [26]: 52.9%
viability, T/C [27]: 48.1%
viability, T/C [28]: 40.9%
viability, T/C [29]: 33.9%
viability, T/C [30]: 18.6%
viability, T/C [31]: 39.8%
viability, T/C [32]: 34.6%
viability, T/C [33]: 39.5%
viability, T/C [34]: 32.5%
viability, T/C [35]: 24.2%
viability, T/C [36]: 14.5%

NC(=O)C(=Cn1cnc(-c2cc(C(F)(F)F)cc(C(F)(F)F)c2)n1)c1cncnc1 + CNC(=O)c1ccc(Nc2nc(OC3CCCC3)c3c(-c4ccc5nc(C)oc5c4)c[nH]c3n2)c(OC)c1
IC50 (second compound 0.0316 µM): 379 nM
IC50 (second compound 0.1 µM): 332 nM
IC50 (second compound 0.316 µM): 192 nM
IC50 (second compound 1 µM): 31.8 nM
IC50 (second compound 3.16 µM): < 9.49 nM
IC50 (second compound 10 µM): < 9.49 nM
viability, T/C (second compound 0.0316 µM, first compound 0.00949 µM): 73.6%
viability, T/C (second compound 0.0316 µM, first compound 0.03 µM): 81.8%
viability, T/C (second compound 0.0316 µM, first compound 0.0949 µM): 73.2%
viability, T/C (second compound 0.0316 µM, first compound 0.3 µM): 53.4%
viability, T/C (second compound 0.0316 µM, first compound 0.949 µM): 29.8%
viability, T/C (second compound 0.0316 µM, first compound 3 µM): 9.82%
viability, T/C (second compound 0.1 µM, first compound 0.00949 µM): 86.3%
viability, T/C (second compound 0.1 µM, first compound 0.03 µM): 77.2%
viability, T/C (second compound 0.1 µM, first compound 0.0949 µM): 62.4%
viability, T/C (second compound 0.1 µM, first compound 0.3 µM): 60.7%
viability, T/C (second compound 0.1 µM, first compound 0.949 µM): 24.6%
viability, T/C (second compound 0.1 µM, first compound 3 µM): 5.03%
viability, T/C (second compound 0.316 µM, first compound 0.00949 µM): 61.4%
viability, T/C (second compound 0.316 µM, first compound 0.03 µM): 80.7%
viability, T/C (second compound 0.316 µM, first compound 0.0949 µM): 61.2%
viability, T/C (second compound 0.316 µM, first compound 0.3 µM): 41%
viability, T/C (second compound 0.316 µM, first compound 0.949 µM): 14.7%
viability, T/C (second compound 0.316 µM, first compound 3 µM): 2.56%
viability, T/C (second compound 1 µM, first compound 0.00949 µM): 46.4%
viability, T/C (second compound 1 µM, first compound 0.03 µM): 56.3%
viability, T/C (second compound 1 µM, first compound 0.0949 µM): 43.4%
viability, T/C (second compound 1 µM, first compound 0.3 µM): 25.6%
viability, T/C (second compound 1 µM, first compound 0.949 µM): 6.77%
viability, T/C (second compound 1 µM, first compound 3 µM): 2%
viability, T/C (second compound 3.16 µM, first compound 0.00949 µM): 43%
viability, T/C (second compound 3.16 µM, first compound 0.03 µM): 35.8%
viability, T/C (second compound 3.16 µM, first compound 0.0949 µM): 26.9%
viability, T/C (second compound 3.16 µM, first compound 0.3 µM): 11.7%
viability, T/C (second compound 3.16 µM, first compound 0.949 µM): 2.83%
viability, T/C (second compound 3.16 µM, first compound 3 µM): 2.08%
viability, T/C (second compound 10 µM, first compound 0.00949 µM): 40.6%
viability, T/C (second compound 10 µM, first compound 0.03 µM): 37.3%
viability, T/C (second compound 10 µM, first compound 0.0949 µM): 22%
viability, T/C (second compound 10 µM, first compound 0.3 µM): 7.23%
viability, T/C (second compound 10 µM, first compound 0.949 µM): 2.36%
viability, T/C (second compound 10 µM, first compound 3 µM): 1.41%

Nc1ccccc1NC(=O)c1ccc(CNC(=O)OCc2cccnc2)cc1 + CNC(=O)c1ccc(Nc2nc(OC3CCCC3)c3c(-c4ccc5nc(C)oc5c4)c[nH]c3n2)c(OC)c1
IC50 (second compound 0.0316 µM): > 10000 nM
IC50 (second compound 0.1 µM): 8510 nM
IC50 (second compound 0.316 µM): 5130 nM
IC50 (second compound 1 µM): 531 nM
IC50 (second compound 3.16 µM): < 31.6 nM
IC50 (second compound 10 µM): < 31.6 nM
viability, T/C [1]: 90.9%
viability, T/C [2]: 88.5%
viability, T/C [3]: 109%
viability, T/C [4]: 111%
viability, T/C [5]: 118%
viability, T/C [6]: 75.8%
viability, T/C [7]: 73.3%
viability, T/C [8]: 88.6%
viability, T/C [9]: 94.6%
viability, T/C [10]: 107%
viability, T/C [11]: 96.5%
viability, T/C [12]: 43%
viability, T/C [13]: 82.1%
viability, T/C [14]: 72.9%
viability, T/C [15]: 78.7%
viability, T/C [16]: 78.3%
viability, T/C [17]: 65.8%
viability, T/C [18]: 28%
viability, T/C [19]: 53.6%
viability, T/C [20]: 45.7%
viability, T/C [21]: 53.4%
viability, T/C [22]: 50.1%
viability, T/C [23]: 40.6%
viability, T/C [24]: 14.5%
viability, T/C [25]: 37.4%
viability, T/C [26]: 44.2%
viability, T/C [27]: 39.7%
viability, T/C [28]: 30.1%
viability, T/C [29]: 17.3%
viability, T/C [30]: 7.51%
viability, T/C [31]: 33%
viability, T/C [32]: 30.8%
viability, T/C [33]: 32.2%
viability, T/C [34]: 19.4%
viability, T/C [35]: 16.6%
viability, T/C [36]: 5.89%
